This note sets out measurements from ChEMBL document CHEMBL4118088, “C5-C6 Carbocyclic-Fused Iminothiadiazine Dioxides as BACE Inhibitors, Their Compositions, and Their Use” (ACS Med Chem Lett, 2017).

One may read the Ki as a dissociation constant, usually derived from enzyme kinetics or from competition with a known ligand. Low readings indicate higher affinity, high ones lower affinity.

In assay [1] the target is T1, Beta-secretase 2 (Homo sapiens, UniProt Q9Y5Z0).
T1 sequence (Q9Y5Z0 whole entry): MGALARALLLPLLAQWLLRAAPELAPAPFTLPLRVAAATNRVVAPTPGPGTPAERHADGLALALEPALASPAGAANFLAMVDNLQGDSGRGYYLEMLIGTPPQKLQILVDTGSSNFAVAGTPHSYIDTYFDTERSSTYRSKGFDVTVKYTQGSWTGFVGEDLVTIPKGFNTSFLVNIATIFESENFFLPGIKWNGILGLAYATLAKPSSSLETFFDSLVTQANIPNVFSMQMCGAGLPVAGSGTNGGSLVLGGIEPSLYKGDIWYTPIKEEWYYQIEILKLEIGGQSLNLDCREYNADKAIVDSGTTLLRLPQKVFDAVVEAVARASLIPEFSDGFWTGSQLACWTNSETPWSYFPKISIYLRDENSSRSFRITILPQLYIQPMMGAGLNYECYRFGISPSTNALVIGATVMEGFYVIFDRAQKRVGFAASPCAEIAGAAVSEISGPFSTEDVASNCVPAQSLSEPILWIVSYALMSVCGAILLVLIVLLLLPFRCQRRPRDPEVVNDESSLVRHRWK
The assay is described as follows: Binding affinity to human autoBACE2 using QSY7-APPswe-Eu as substrate preincubated for 30 mins followed by substrate addition measured after 90 mins by HTRF assay. (In general: Time-resolved FRET reads energy transfer from a long-lived donor to a nearby acceptor.)

In assay [2] the target is Beta-secretase 1 (Homo sapiens, UniProt P56817). The assay is described as follows: Binding affinity to human BACE1 catalytic domain using QSY7-APPswe-Eu as substrate preincubated for 30 mins followed by substrate addition measured after 1.5 hrs by HTRF assay.
Chain of Beta-secretase 1 (P56817 whole entry, the tested form may be a part): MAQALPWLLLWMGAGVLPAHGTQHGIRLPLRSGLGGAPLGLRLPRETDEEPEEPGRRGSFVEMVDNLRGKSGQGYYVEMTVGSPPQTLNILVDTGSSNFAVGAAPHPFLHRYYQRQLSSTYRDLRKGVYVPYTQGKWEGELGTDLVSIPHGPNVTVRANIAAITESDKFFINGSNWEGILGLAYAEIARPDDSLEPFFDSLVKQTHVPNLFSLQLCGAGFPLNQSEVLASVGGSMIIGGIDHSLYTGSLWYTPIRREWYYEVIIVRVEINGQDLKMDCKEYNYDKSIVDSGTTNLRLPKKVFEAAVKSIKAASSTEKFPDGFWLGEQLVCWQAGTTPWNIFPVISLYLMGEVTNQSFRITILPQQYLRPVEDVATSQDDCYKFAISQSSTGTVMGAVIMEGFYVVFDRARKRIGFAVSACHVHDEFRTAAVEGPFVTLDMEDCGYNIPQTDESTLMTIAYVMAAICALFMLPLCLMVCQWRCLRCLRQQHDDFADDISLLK

Turning to `COc1cnc2c(C(=O)Nc3ccc(F)c([C@]45CCC[C@H]4S(=O)(=O)N(C)C(=N)N5)c3)nccc2n1`, the inhibitory constant (Ki) in assay [1] was 9 nM; in assay [2], 36 nM.
For `CN1C(=N)N[C@@]2(c3cc(NC(=O)c4nccc5cc(Br)cnc45)ccc3F)CCC[C@H]2S1(=O)=O`, in that order: 0.5 nM and 4 nM.
For `COc1cnc2c(C(=O)Nc3ccc(F)c([C@]45CCC[C@H]4S(=O)(=O)N(C)C(=N)N5)c3)nccc2c1`, in that order: 10 nM and 31 nM.
For the compound `COc1cnc2c(C(=O)Nc3ccc(F)c([C@]45CCC[C@H]4S(=O)(=O)N(C)C(=N)N5)c3)ccnc2c1`, the inhibitory constant (Ki) was found to be 198 nM in assay [1] and 206 nM in assay [2].
